# Values joined by “and” are separate entries in the source; they are usually repeats but may differ in a detail not shown here. Equal entries are not always repeated. Structures can show the parent of a compound that is named as a salt. Where two headings read alike, the source gives them in different places.
# What was measured:
# COVID-19 = conditions: cited from earlier work
# recombinant sACE2 = recombinant sACE2 (Homo sapiens, UniProt Q9BYF1); assay type: binding
# [1] = biological target: SARS-CoV-2 spike RBD-ACE2 interaction (Homo sapiens, UniProt Q9BYF1); experiment: biochemical; assay type: binding; conditions: for IC50: IC50 Biosensor
# wild-type VSV-GFP = assay type: cell-based
# VSV-Spike (strain 2) = conditions: mouse, in vivo
# [2] = system: SARS-CoV-2-Spike pseudotyped vesicular stomatitis virus (VSV-GFP-Spike); assay type: cell-based
# [3] = mouse, in vivo
# [4] = system: SARS-CoV-2 (FR-4286 strain); parameters: species or system K18-hACE2 mice; conditions: mouse, in vivo
# [5] = in vivo, 0.016 mg/kg; cited from earlier work
# [6] = system: SARS-CoV-2 (strain 291.3 FR-4286); assay type: cell-based
# [7] = biological target: RBD of SARS-CoV (2002)-ACE2 interaction (Homo sapiens, UniProt Q9BYF1); experiment: biochemical; assay type: binding
# [8] = system: fusion between spike and ACE2 (HEK293T cells); assay type: cell-based
# [9] = system: SARS-CoV-2 VOCs (Alpha, Beta, Delta, cluster5); assay type: cell-based
# [10] = biological target: S1 domain of SARS-CoV-2 spike-ACE2 interaction (Homo sapiens, UniProt Q9BYF1); assay type: binding
# [11] = rabbit, in vivo; cited from earlier work
# SARS-CoV-2 = assay type: cell-based
# Recombinant ACE2 = Recombinant ACE2 (Homo sapiens, UniProt Q9BYF1)
# LATS biosensor = assay type: binding; conditions: 4 μM
# wild-type nanoluciferase = wild-type nanoluciferase (Oplophorus gracilirostris, UniProt Q9GV45, A31E/A60N/A81I/F95D/I117V/K70R/L54V/L99Q/M102K/N193R/P142E/Q151K/Q38R/Q45L/V71I/Y165I); assay type: biochemical; conditions: 4 μM
# [12] = method B, newly purchased drugs, 2–25 μM, Figure 2D
# [13] = Prestwick library screen, 4 μM, compound added to pre-formed RBD:ACE2 complex
# [14] = Prestwick library screen, 4 μM, compound added to LgBiT-RBD, then SmBiT-ACE2
# [15] = read-out: inhibition of bioreporter signal, SARS-CoV RBD/ACE2, both methods
# Chain of SARS-CoV-2 spike RBD-ACE2 interaction (Q9BYF1 18-740): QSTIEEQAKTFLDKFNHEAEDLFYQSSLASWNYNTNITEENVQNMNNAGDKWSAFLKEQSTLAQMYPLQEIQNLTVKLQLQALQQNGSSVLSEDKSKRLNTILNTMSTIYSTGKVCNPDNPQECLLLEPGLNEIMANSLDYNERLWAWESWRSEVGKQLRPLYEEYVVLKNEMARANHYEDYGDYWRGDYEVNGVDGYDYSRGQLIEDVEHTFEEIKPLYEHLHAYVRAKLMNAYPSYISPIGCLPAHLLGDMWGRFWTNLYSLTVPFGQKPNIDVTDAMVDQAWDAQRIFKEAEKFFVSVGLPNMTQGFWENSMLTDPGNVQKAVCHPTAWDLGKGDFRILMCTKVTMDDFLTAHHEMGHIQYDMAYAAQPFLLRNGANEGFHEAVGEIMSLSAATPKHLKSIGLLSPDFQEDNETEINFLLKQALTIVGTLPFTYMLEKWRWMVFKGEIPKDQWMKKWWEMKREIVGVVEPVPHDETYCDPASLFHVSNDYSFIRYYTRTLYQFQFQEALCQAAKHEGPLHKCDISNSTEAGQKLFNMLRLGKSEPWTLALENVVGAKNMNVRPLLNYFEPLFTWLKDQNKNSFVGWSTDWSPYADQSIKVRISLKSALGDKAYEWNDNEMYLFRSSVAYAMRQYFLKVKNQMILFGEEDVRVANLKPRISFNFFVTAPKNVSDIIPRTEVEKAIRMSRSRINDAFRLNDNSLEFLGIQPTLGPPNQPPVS
# Chain of RBD of SARS-CoV (2002)-ACE2 interaction (Q9BYF1 18-740 limits assumed): as the sequence (Q9BYF1 18-740) above
# Chain of Recombinant ACE2 (Q9BYF1 18-805): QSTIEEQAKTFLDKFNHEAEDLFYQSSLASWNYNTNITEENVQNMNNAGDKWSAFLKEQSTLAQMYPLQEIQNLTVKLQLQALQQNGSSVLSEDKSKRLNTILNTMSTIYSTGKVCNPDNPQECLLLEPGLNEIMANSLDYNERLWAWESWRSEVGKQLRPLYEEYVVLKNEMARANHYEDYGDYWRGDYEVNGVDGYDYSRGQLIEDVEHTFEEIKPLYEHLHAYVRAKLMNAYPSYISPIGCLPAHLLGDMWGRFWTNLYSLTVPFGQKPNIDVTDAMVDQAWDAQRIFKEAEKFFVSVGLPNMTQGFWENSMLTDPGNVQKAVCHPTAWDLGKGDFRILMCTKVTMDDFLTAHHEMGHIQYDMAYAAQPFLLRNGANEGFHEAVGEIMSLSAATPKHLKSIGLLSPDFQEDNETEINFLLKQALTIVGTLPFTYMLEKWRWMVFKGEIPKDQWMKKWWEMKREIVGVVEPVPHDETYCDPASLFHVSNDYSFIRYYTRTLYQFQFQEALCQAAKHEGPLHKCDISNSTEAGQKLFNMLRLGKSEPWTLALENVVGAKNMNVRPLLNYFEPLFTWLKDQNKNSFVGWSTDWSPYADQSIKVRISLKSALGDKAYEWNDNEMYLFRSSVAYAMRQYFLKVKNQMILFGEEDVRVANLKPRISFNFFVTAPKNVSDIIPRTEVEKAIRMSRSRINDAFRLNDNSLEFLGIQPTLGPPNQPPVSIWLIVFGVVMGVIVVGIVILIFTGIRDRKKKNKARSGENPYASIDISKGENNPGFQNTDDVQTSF
# Chain of recombinant sACE2 (Q9BYF1 19-607): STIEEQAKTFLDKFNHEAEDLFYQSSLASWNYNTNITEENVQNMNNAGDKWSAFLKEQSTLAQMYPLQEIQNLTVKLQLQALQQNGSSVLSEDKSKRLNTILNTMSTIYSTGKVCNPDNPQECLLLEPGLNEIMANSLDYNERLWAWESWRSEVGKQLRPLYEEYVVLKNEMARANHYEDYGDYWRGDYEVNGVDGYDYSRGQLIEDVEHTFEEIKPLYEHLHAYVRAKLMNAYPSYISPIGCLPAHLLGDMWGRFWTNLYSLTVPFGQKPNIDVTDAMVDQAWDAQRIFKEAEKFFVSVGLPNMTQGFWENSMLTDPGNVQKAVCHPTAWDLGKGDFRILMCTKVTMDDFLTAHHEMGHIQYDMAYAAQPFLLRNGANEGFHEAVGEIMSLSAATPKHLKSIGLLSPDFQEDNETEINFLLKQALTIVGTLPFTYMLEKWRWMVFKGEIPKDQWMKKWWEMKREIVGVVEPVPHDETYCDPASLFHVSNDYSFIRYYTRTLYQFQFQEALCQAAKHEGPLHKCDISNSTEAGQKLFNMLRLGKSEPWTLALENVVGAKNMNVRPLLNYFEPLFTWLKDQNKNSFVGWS
# Chain of S1 domain of SARS-CoV-2 spike-ACE2 interaction (Q9BYF1 18-740): as the sequence (Q9BYF1 18-740) above
smiles,measurement,setting,value
CC(C)C(=O)OC[C@H]1O[C@@H](n2ccc(NO)nc2=O)[C@H](O)[C@@H]1O [Molnupiravir],reduction of hospitalization or death,"COVID-19; oral treatment, clinical",50%
c1ccc(-c2ccc(C(c3ccccc3)n3ccnc3)cc2)cc1 (stereo not drawn) [bifonazole],effect on sACE2 unfolding by urea,recombinant sACE2,stabilizes sACE2
same,concentration up to which no overt toxicity,VeroE6 and VeroAT cells; African green monkey,up to 100 μM
same,"bioreporter complementation, pre-treatment of ACE2 followed by RBD",[1],complete abrogation of bioreporter complementation and luminescence
same,concentration inhibiting WT ACE2 binding to the RBD to similar levels as αRBD,[1],3.29 µM
same,"reduction in bioreporter signal, method A",[1],−46%
same,"reduction in bioreporter signal, method B",[1],−51%
same,IC50,[1],1300 nM and 1600 nM
same,inhibition at 4 µM,"[1]; read-out: peak inhibition, pre-treatment of RBD followed by ACE2",50%
same,inhibition at 3.29 µM,[1]; read-out: signal inhibition,80%
same,WT VSV infection (entry),wild-type VSV-GFP,largely unaffected
same,WT VSV plaque size,wild-type VSV-GFP,no effect on WT VSV
same,reduction in pY705-Stat3 in the lungs,VSV-Spike (strain 2),~50%
same,reduction of lethality,VSV-Spike (strain 2),40%
same,survival,VSV-Spike (strain 2),2 of 5
same,survival of challenged mice,VSV-Spike (strain 2),40%
same,viral load in lungs by qRT-PCR,VSV-Spike (strain 2),significant reduction in viral load
same,VSV-Spike plaque size,[2],reduction in VSV-Spike plaque size
same,concentration giving spike-specific reduction in viral growth,[2],~35 µM
same,"immunofluorescent VSV staining, spike-pseudotyped VSV strains",[2],complete abrogation of VSV staining
same,viral entry of pseudotyped VSV-Spike,[2],significant impairment in viral entry
same,tolerability,[3],well tolerated
same,survival,[4],8 of 11
same,weight after infection,[4],lost less weight
same,"half-life (t1/2), first phase of biphasic elimination",[5],7 h
same,"half-life (t1/2), second phase of biphasic elimination",[5],42 h
same,spike protein levels (immunoblotting),[6],dramatic reduction in spike protein levels
same,viral burden by TCID50 assay,[6],reduced
same,viral mRNA levels (qPCR),[6],significant reduction in viral mRNA levels
same,inhibition at 4 µM,"[7]; read-out: inhibition of luminescence, SARS-CoV RBD/ACE2, method A",45%
same,inhibition at 4 µM,"[7]; read-out: inhibition of luminescence, SARS-CoV RBD/ACE2, method B",22%
same,fusion of ACE2- and ACE2/TMPRSS2-expressing cells with spike-expressing HEK293T cells,[8],dose-dependent reduction in fusion
same,viral RNA levels of VOCs,[9],significant reduction in output of the VOCs
same,"reduction in binding, ACE2 and S1 domain of spike",[10],~30%
same,oral doses that could result in embryotoxicity,[11],> 30 mg/kg
same,viral mRNA and infectious particles (TCID50),SARS-CoV-2,reduction in viral mRNA as well as infectious particles
same,inhibition of ACE2 enzymatic activity,Recombinant ACE2,does not involve inhibition of ACE2 enzymatic activity
same,effect on viability,VeroE6-hTMPRSS2 cells,no effect on viability at the antiviral dose tested
same,effect on cell viability,A549-hACE2 cells,no effect on cell viability at the dose tested
COc1cc(N)c(Cl)cc1C(=O)NC1CCN(CCCOc2ccc(F)cc2)CC1OC (stereo not drawn) [cisapride],toxic at doses of more than,"VeroE6 and VeroAT cells; VeroE6 / VeroAT, 48 h",more than 20 μM
same,IC50,[1]; [12],16500 nM
same,effect on VSV infection,[2],did not affect VSV infection at all concentrations tested
same,reduction in luminescence with the LATS biosensor,LATS biosensor,−13%
same,reduction in luminescence with nanoluciferase on its own,wild-type nanoluciferase,not nanoluciferase on its own
Clc1ccccc1C(c1ccccc1)(c1ccccc1)n1ccnc1 [clotrimazole],"reduction in bioreporter signal, method A",[1]; [13],−21%
"Clc1ccc(COC(Cn2ccnc2)c2ccc(Cl)cc2Cl)cc1 (stereo not drawn) [econazole nitrate, econazole nitrate salt]","reduction in bioreporter signal, method B",[1]; [14],−23%
same,"reduction in bioreporter signal, method A",[1]; [13],−36%
"C#C[C@]1(O)CC[C@H]2[C@@H]3CCc4cc(O)ccc4[C@H]3CC[C@@]21C [ethynylestradiol, 17a-ethynylestradiol]",IC50,[1]; [12],2600 nM
same,inhibition at 4 µM,[7]; [15],3 to 6%
CCC(C)n1ncn(-c2ccc(N3CCN(c4ccc(OCC5COC(Cn6cncn6)(c6ccc(Cl)cc6Cl)O5)cc4)CC3)cc2)c1=O (stereo not drawn) [itraconazole],efficacy in hospitalized individuals,"COVID-19; administered orally, clinical study",no efficacy
CC(=O)N1CCN(c2ccc(OCC3COC(Cn4ccnc4)(c4ccc(Cl)cc4Cl)O3)cc2)CC1 (stereo not drawn) [ketoconazole],IC50,"[1]; method B, imidazole comparison, Figure 3B",14500 nM
same,"reduction in bioreporter signal, method A",[1]; [13],−29%
same,concentration giving spike-specific reduction in viral growth,[2],~80 µM
"COC(=O)C1=C(C)NC(C)=C(C(=O)OCCN(C)Cc2ccccc2)C1c1cccc([N+](=O)[O-])c1 (stereo not drawn) [nicardipine, nicardipine HCl]",IC50,[1]; [12],1900 nM
same,inhibition at 4 µM,[7]; [15],3 to 6%
CCOC1O[C@H]([C@@H](COCc2ccccc2)OCc2ccccc2)[C@H](OCc2ccccc2)[C@H]1O (stereo partly drawn) [tribenoside],"reduction in bioreporter signal, method B",[1]; [14],−9%
same,"reduction in bioreporter signal, method A",[1]; [13],−21%

# Reference: article PMC9075979 (Molecular Therapy, 2022)
